According to the supplement of paper PMC5908809:

Tests used:
[1] = system: normal NK cells expanded with K562-aAPC; assay: percent inhibition of viability; higher = more inhibition; conditions: 72 h, IL-2 2.5 ng/mL
Procedure: (§1)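 Drug sensitivity and resistance testing on K562-aAPC-expanded normal NK cells: 5 concentrations (10-fold steps over a 10,000-fold range), 72 h at 37 °C, viability by CellTiter-Glo normalised to DMSO and benzethonium chloride controls; DSS from the fitted curve.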

[2] = system: normal primary NK cells, pool 3 (3 donors) (IL-2 2.5 ng/mL); assay: as above; conditions: 72 h
[3] = system: normal primary NK cells, pool 1 (3 donors), resting (IL-2 0 ng/mL); assay: as above; conditions: 72 h
[4] = system: normal primary NK cells, pool 2 (3 donors) (IL-2 2.5 ng/mL); assay: as above; conditions: 72 h
[5] = system: SNK-6 (IL-2 2.5 ng/mL); assay: as above; conditions: 72 h
[6] = system: IMC-1 (IL-2 20 ng/mL); assay: as above; conditions: 72 h
[7] = system: NK-92 (IL-2 2.5 ng/mL); assay: as above; conditions: 72 h
[8] = system: NK-YS (IL-2 2.5 ng/mL); assay: as above; conditions: 72 h
[9] = system: NKL (IL-2 2.5 ng/mL); assay: as above; conditions: 72 h
[10] = system: normal primary NK cells, pool 1 (3 donors) (IL-2 2.5 ng/mL); assay: as above; conditions: 72 h
[11] = system: KHYG-1 (IL-2 2.5 ng/mL); assay: as above; conditions: 72 h
[12] = system: DERL-7 (IL-2 2.5 ng/mL); assay: as above; conditions: 72 h
[13] = system: KAI3 (IL-2 2.5 ng/mL); assay: as above; conditions: 72 h
[14] = system: YT (IL-2 2.5 ng/mL); assay: as above; conditions: 72 h
[15] = system: normal NK cells expanded with K562-aAPC; assay: drug sensitivity score (DSS) (DSS units); higher = more sensitive; extreme values may be limits of the assay; conditions: 72 h; IL-2 2.5 ng/mL
Procedure: as §1

[16] = system: normal primary NK cells, pool 3 (3 donors) (IL-2 2.5 ng/mL); assay: as above; conditions: 72 h
[17] = system: normal primary NK cells, pool 1 (3 donors), resting (IL-2 0 ng/mL); assay: as above; conditions: 72 h
[18] = system: normal primary NK cells, pool 2 (3 donors) (IL-2 2.5 ng/mL); assay: as above; conditions: 72 h
[19] = system: SNK-6 (IL-2 2.5 ng/mL); assay: as above; conditions: 72 h
[20] = system: IMC-1 (IL-2 20 ng/mL); assay: as above; conditions: 72 h
[21] = system: NK-92 (IL-2 2.5 ng/mL); assay: as above; conditions: 72 h
[22] = system: NK-YS (IL-2 2.5 ng/mL); assay: as above; conditions: 72 h
[23] = system: NKL (IL-2 2.5 ng/mL); assay: as above; conditions: 72 h
[24] = system: normal primary NK cells, pool 1 (3 donors) (IL-2 2.5 ng/mL); assay: as above; conditions: 72 h
[25] = system: KHYG-1 (IL-2 2.5 ng/mL); assay: as above; conditions: 72 h
[26] = system: DERL-7 (IL-2 2.5 ng/mL); assay: as above; conditions: 72 h
[27] = system: KAI3 (IL-2 2.5 ng/mL); assay: as above; conditions: 72 h
[28] = system: YT (IL-2 2.5 ng/mL); assay: as above; conditions: 72 h

C[C@@]1(C(=O)Nc2ccc(F)nc2)CCCN1c1nc(Nc2cc(C3CC3)n[nH]2)c2cccn2n1 (max concentration tested 10000 nM)
percent inhibition of viability [%]
Conditions | 1 nM | 10 nM | 100 nM | 1000 nM | 10000 nM
[1] | -9.12 | -3.4 | -6.53 | 45.5 | 42.2
[2] | -3.23 | -1.9 | 0.53 | 7.47 | -2.1
[3] | -9 | -4.43 | 15.4 | -2.47 | 51.6
[4] | -2.95 | -4.83 | -5.48 | -1.42 | 10.7
[5] | 2.3 | -11.9 | -15.8 | 57.8 | 74.8
[6] | 1.89 | -6.3 | 0.07 | 3.22 | 76.3
[7] | 1.84 | 11 | 7.85 | 33.8 | 57.6
[8] | -3.69 | -4.66 | 4.73 | 65.5 | 77.1
[9] | -16.6 | -4.3 | -14.1 | 1.87 | -5.96
[10] | -6.95 | -10 | 3.68 | 2.67 | 12.4
[11] | -3.05 | -5.44 | 1.8 | 30.1 | 70.8
[12] | -1.6 | 5.82 | 2.68 | 74.3 | 60.1
[13] | -1.42 | -2.58 | 4.51 | 22.4 | 41.7
[14] | 3.08 | 1.72 | 7.96 | 25 | 51.8

Conditions | drug sensitivity score
[15] | 7.77
[16] | 0
[17] | 2.52
[18] | 0
[19] | 10.8
[20] | 4.66
[21] | 7.43
[22] | 12.7
[23] | 0
[24] | 0.16
[25] | 7.7
[26] | 13.9
[27] | 4.58
[28] | 5.62

CC[C@H](NC(=O)[C@H](C)NC)C(=O)N1C[C@@H](O)C[C@H]1Cc1c(-c2[nH]c3cc(F)ccc3c2C[C@@H]2C[C@H](O)CN2C(=O)[C@H](CC)NC(=O)[C@H](C)NC)[nH]c2cc(F)ccc12 [Birinapant] (max concentration tested 1000 nM)
percent inhibition of viability [%]
Conditions | 0.1 nM | 1 nM | 10 nM | 100 nM | 1000 nM
[1] | -2.92 | -0.28 | 2.8 | 10.2 | 38.9
[2] | -4.73 | -7.57 | -8.06 | -3.61 | 38.2
[3] | -23.1 | -28.9 | -10.4 | -2.86 | 73.8
[4] | -6.05 | -7.14 | -11.2 | 2.7 | 53.1
[5] | -1.62 | -1.64 | -7.31 | -10.8 | -16.1
[6] | -3.47 | 1.41 | -0.22 | 1.34 | 45.6
[7] | -4.58 | -12.3 | 5.84 | 11.1 | 31
[8] | -2.88 | -9.14 | -8.38 | -5.45 | -8.45
[9] | 5.63 | 0.8 | 3.21 | 19.2 | 32.2
[10] | -9.47 | -11.8 | 3.46 | 0.49 | 69.2
[11] | -2.97 | -5.19 | -7.39 | -1.77 | 17.7
[12] | 7.8 | 5.54 | 23.2 | 43.1 | 46.6
[13] | 1.71 | -5.41 | -0.72 | 9.21 | 15.7
[14] | 1.52 | -1.94 | 2.55 | 4.56 | 2.39

Conditions | drug sensitivity score
[15] | 3.47
[16] | 1.6
[17] | 3.83
[18] | 3.2
[19] | 0
[20] | 2.52
[21] | 2.35
[22] | 0
[23] | 3.5
[24] | 3.88
[25] | 0.34
[26] | 10.5
[27] | 1
[28] | 0
